One series relates to NSCLC. Nature of the series: Anticancer activity against human NSCLC cells. It is filed as functional, cell-based.
Series [1] can be described thus: Antitumor activity against human multiple myeloma cells. It is filed as functional.
For series [2], the target named is T1, DNA polymerase alpha catalytic subunit (Homo sapiens, UniProt P09884).
T1 sequence (P09884 whole entry): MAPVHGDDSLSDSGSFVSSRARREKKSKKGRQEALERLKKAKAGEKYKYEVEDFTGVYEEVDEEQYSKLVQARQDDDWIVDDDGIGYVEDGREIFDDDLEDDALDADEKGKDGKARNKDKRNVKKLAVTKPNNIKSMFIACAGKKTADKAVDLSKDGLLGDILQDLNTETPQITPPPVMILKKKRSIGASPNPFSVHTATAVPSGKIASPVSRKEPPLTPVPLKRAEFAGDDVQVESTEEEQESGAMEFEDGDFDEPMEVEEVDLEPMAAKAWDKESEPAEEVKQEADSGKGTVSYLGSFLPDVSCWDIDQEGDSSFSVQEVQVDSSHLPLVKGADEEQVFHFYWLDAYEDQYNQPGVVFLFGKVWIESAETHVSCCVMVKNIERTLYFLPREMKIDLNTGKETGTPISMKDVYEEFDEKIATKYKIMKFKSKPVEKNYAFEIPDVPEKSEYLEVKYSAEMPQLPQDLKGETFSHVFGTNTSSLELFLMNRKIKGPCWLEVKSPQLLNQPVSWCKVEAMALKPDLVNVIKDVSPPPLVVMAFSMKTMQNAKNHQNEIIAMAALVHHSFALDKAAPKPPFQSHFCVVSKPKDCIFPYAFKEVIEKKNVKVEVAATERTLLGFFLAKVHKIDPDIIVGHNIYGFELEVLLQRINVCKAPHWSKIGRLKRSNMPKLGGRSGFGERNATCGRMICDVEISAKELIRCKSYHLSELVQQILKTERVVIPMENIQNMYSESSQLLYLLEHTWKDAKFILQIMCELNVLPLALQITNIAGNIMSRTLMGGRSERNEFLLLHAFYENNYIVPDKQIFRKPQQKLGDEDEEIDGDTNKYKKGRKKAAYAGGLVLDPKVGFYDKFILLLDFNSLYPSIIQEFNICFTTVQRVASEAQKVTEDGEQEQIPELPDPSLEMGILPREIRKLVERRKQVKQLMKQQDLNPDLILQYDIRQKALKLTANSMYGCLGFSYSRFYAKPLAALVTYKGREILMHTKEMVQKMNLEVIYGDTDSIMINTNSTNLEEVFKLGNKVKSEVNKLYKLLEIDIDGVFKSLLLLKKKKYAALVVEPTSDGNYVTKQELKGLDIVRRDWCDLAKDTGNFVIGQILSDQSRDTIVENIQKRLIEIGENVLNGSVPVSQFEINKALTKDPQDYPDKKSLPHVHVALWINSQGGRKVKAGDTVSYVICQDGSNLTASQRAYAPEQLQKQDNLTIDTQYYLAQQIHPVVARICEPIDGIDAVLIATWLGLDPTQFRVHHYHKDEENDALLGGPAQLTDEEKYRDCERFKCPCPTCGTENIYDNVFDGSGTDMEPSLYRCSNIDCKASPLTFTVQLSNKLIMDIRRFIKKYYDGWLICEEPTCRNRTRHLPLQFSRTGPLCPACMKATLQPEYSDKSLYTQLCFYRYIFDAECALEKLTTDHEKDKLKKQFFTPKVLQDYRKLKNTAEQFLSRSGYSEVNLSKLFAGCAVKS
In words: Inhibition of human DNA polymerase-alpha (unknown origin).

Series [3] deals with T2, Phosphatidylinositol 3-kinase catalytic subunit type 3 (Homo sapiens, UniProt Q8NEB9). Nature of the series: Inhibition of Vps34 (unknown origin).
Series [4] deals with T2, Phosphatidylinositol 3-kinase catalytic subunit type 3. Nature of the series: Inhibition of Vps34 (unknown origin) interaction with PIK3 assessed as reduction in autophagy by increasing LC3 level.
Series [5] in a line: Cytotoxicity against RSL3 resistance human HN3 cells assessed as reduction in cell viability. Format: functional, cell-based.
Series [6] addresses Serine/threonine-protein kinase mTOR (Homo sapiens, UniProt P42345). Nature of the series: Inhibition of mTOR in HEK293 cells. Format: cell-based.
A further series concerns the target CYP450 (Homo sapiens, UniProt P04798+P05177+P05181+P08684+P10632+P10635+P11509+P11712+P13584+P20813+P20815+P20853+P24462+P24903+P33260+P33261+P51589+P78329+P98187+Q02928+Q08477+Q16678+Q16696+Q5TCH4+Q6VVX0+Q7Z449+Q8TAV3+Q96SQ9+Q9HB55). Nature of the series: Inhibition of CYP450 (unknown origin). Format: ADME, protein assay.
Series [7] has as its target T3, UDP-glucuronosyltransferase 1A1 (Homo sapiens, UniProt P22309).
T3 sequence (P22309 whole entry): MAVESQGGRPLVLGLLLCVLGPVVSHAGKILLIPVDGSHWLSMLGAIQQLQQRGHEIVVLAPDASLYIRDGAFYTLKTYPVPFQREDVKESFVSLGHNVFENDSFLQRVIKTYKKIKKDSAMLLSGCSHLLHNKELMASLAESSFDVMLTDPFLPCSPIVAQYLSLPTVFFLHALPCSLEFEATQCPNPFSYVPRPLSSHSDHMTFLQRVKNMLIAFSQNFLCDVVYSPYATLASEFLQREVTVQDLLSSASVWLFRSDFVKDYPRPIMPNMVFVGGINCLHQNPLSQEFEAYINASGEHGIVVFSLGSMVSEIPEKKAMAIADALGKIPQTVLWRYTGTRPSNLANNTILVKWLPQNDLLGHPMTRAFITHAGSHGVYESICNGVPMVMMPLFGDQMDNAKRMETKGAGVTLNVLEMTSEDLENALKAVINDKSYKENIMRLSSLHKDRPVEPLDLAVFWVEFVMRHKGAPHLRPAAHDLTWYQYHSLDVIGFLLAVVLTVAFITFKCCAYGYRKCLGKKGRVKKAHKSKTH
In words: Induction of UGT1A1 (unknown origin) assessed as increase in intracellular acidic autophagy vesicles formation. It is filed as ADME, cell-based.

In series [8] the target is T2, Phosphatidylinositol 3-kinase catalytic subunit type 3. Nature of the series: Inhibition of Vps34 in human MCF7-LC3 cells. Format: cell-based.

Drawing on ChEMBL document CHEMBL4622845, “p62/SQSTM1, a Central but Unexploited Target: Advances in Its Physiological/Pathogenic Functions and Small Molecular Modulators” (J Med Chem, 2020), this text covers IC50 for eight compounds.

Where a name gives a salt, the structure may show the parent alone.

T2 sequence (Q8NEB9 whole entry): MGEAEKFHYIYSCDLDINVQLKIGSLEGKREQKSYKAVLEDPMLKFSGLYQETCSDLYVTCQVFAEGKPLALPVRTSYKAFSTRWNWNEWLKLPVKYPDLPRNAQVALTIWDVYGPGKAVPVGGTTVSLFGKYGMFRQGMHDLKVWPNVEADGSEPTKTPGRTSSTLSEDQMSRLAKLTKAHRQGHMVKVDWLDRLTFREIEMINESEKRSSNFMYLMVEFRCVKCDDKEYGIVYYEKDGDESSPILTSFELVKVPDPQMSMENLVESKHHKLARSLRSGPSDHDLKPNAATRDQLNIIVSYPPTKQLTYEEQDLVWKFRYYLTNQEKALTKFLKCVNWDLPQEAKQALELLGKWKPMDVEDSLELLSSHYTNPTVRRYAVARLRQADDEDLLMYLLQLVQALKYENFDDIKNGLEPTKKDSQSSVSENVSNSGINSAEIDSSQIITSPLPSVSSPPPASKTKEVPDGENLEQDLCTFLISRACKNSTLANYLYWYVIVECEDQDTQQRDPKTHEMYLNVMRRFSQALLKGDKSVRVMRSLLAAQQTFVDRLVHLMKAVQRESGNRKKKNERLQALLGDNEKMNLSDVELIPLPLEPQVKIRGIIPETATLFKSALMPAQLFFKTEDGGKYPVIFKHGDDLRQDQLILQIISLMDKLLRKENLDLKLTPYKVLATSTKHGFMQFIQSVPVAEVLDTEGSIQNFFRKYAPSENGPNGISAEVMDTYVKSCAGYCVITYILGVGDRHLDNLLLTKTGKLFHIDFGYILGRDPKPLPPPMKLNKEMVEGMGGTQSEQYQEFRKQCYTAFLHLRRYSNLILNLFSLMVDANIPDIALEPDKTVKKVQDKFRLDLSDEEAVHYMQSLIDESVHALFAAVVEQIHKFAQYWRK

With `COc1ccc(S(=O)(=O)Nc2cccnc2Nc2ccc(O)cc2)cc1` [ABT-751], the 50% inhibitory concentration (IC50) (as a rule, the point on the concentration scale where inhibition reaches its midpoint) in the series with NSCLC came to 1500 nM.

Take `OCCNCc1ccc(OCc2ccc(F)cc2)c(OCc2ccc(F)cc2)c1`: the IC50 in series [1] is 4600 nM.

As for `Oc1ccc(/C=C/c2cc(O)cc(O)c2)cc1` [RESVERATROL], in [2], the midpoint of inhibition, the IC50, lay at 3300 nM.

On to `COc1ccc(N(C(=O)CCl)C(C(=O)NCCc2ccccc2)c2cccs2)cc1Cl` (stereo not given), for which the half-inhibitory concentration (IC50) in series [3] worked out at 25 nM; in [4] it was 18 nM; in [5] it was 5800 nM.

Regarding `CO[C@H]1C[C@@H]2CC[C@@H](C)[C@@](O)(O2)C(=O)C(=O)N2CCCC[C@H]2C(=O)O[C@H]([C@H](C)C[C@@H]2CC[C@@H](OCCO)[C@H](OC)C2)CC(=O)[C@H](C)/C=C(\C)[C@@H](O)[C@@H](OC)C(=O)[C@H](C)C[C@H](C)/C=C/C=C/C=C/1C` [EVEROLIMUS], the 50% inhibitory concentration (IC50) in series [6] lay in the range of 5 to 6 nM.

On CYP450, `CCCC(C(=O)OCCN(CC)CC)(c1ccccc1)c1ccccc1` [PROADIFEN HYDROCHLORIDE] showed a concentration for half-maximal inhibition (IC50) of 19000 nM.

As to `C=CC(C)(C)c1cc(/C=C/C(=O)c2ccc(O)cc2)c(OC)cc1O` [LICOAGROCHACONE A], the IC50 in [7] was 970 nM.

`Cc1cc(Nc2cc(Cl)nc(Oc3ccc([N+](=O)[O-])cc3)n2)n[nH]1` yielded a concentration for half-maximal inhibition (IC50) in [8] of 19 nM.
